A value given as a limit tells only on which side of the number the result lay.

One data set is described as follows: in vivo. The settings on record: NCr nu/nu, mouse.
A short description of data set [1]: DU-145 prostate tumor xenograft, PEG-docetaxel vs docetaxel. The data set is classed as in vivo, mice. Conditions: NCr nu/nu, mouse, in vivo, intravenous; DU-145 study, q7 d×2; read-out: tolerated dose (maximum tolerated dose).
Another data set concerns DU-145 prostate tumors. The data set is described as above. It is filed as in vivo, mice. The settings on record: DU-145, two doses (q7 d×2).
The test system of the next data set is HT29 tumor fragments. The data set can be described thus: HT29 colorectal tumor xenograft, monotherapy study (Example 21). The data set is classed as in vivo. The settings on record: for Tumor growth delay: HT29, all three doses tested (40, 60, or 90 mg/kg); for tolerability: all doses. The source says:
HT29 tumor fragments were implanted into female, athymic nude mice in the monotherapy study. […]. Animals were weighed and tumor volumes measured twice weekly after the first drug injection in both studies.

For the next data set, the system named is MCF-7 breast tumor cells. Nature of the data set: MCF-7 breast tumor xenograft, 4-arm-PEG-gly-irino-20K vs irinotecan. It is filed as in vivo, Female athymic (Nu:Nu) mice. Conditions: for Days to 4 Times Tumor Size: median; for Tumor Regression Complete / Tumor Regression Partial: n=10. On the procedure:
Female athymic (Nu:Nu) mice were injected subcutaneously with MCF-7 breast tumor cells and the tumors were allowed to reach a median volume of 75 mm^3. […] The control group received normal saline. The animals were weighed and tumors were measured twice weekly after administration of the first drug injection.

Data set [2] in a line: PK/PD study in NCl-H460 lung tumor model (plasma and tumor AUC, t½). Conditions: Day 1 AUC.
The nature of data set [3]: PK/PD study in HT29 colon tumor model (plasma and tumor AUC, t½). The settings on record: 40 mg/kg IV q4d x3, Day 1 AUC.
Data set [4] deals with Human HT29 colon tumor xenografts. The data set can be described thus: HT29 colon tumor xenograft, anti-tumor activity (Examples 2 and 6). The settings on record: HT29 colon tumors, 3 doses; for delay in tumor growth (anti-tumor activity) compared to the control: 60 mg/kg IV every 4 days.
Protocol: Human HT29 colon tumor xenografts were subcutaneously implanted in athymic nude mice. After about two weeks of adequate tumor growth (100 to 250 mg), these animals were divided into different groups of ten mice each. […] Doses were administered intravenously, with one dose administered every 4 days for a total of 3 administered doses. The mice were observed daily and the tumors were measured with calipers twice a week.
Athymic nude mice were implanted subcutaneously with human cancer cell lines (lung cancer cell line NCl-H460, and colon cancer cell line HT-29) and the tumors allowed to grow to approximately 150 mg in size. The animals were divided into groups of ten mice each.
Tumor volume measurements were taken over a period of 60-80 days; tumor volumes were converted to tumor weight. Body weights were also measured over the same period to provide an indication of weight loss.
The nature of data set [5]: Plasma levels of SN-38 in dogs (FIG. 24). The data set is classed as in vivo.
Protocol: (§1) Additional illustrative in-vivo studies were carried out as described previously herein or in accordance with methods well-known to one having ordinary skill in the art.
In a further data set the test system is neutrophils. Nature of the data set: Neutropenia in dogs, 4-arm-PEG-GLY-IRINO-20K vs irinotecan (FIG. 21). The data set is classed as in vivo.
A short description of data set [6]: Diarrhea episodes in dogs (FIG. 23). It is filed as in vivo.
Protocol: as §1
A short description of data set [7]: Toxicity: maximum tolerated dose and side-effects in rat and dog (FIG. 22). It is filed as in vivo.
Protocol: as §1
The conditions of data set [8]: rodents.
A short description of data set [9]: Exposure to SN-38 in HT-29 colorectal tumors in mice (FIG. 20). The data set is classed as in vivo.
Protocol: as §1
Setting [10] is: single dose, following PEG-Irinotecan administration.

Description for in vivo: Human NCl-H460 lung tumors (30 to 40 fragments of each) were implanted subcutaneously in the mice (Charles Rivers Labs: NCr nu/nu) near the right axillary area.
The animals were randomized into groups in a manner such that the median tumor weights on the first day of treatment were as close to each other as possible.
The mice received 1 or 2 intravenous doses of test compound or vehicle (saline).
The animals were weighed and the tumors measured twice weekly after administration of the first injection. The tumor volume was measured by caliper measurements (mm) and using the formula of an ellipsoid sphere: L×W^2/2=mm^3, where L and W refer to the larger and smaller perpendicular dimensions collected at each measurement. This formula was also used to calculate tumor weight assuming unit density (1 mm^3=1 mg).
Any animal found moribund or any animal whose tumor reached 4000 mg, ulcerated or was sloughed off was euthanized prior to study termination.
Protocol for neutrophils: as §1

In turn, `CC(=O)O[C@@]12CO[C@@H]1C[C@H](O)[C@@]1(C)C(=O)[C@H](O)C3=C(C)[C@@H](OC(=O)[C@H](O)[C@@H](NC(=O)OC(C)(C)C)c4ccccc4)C[C@@](O)([C@@H](OC(=O)c4ccccc4)[C@H]21)C3(C)C` [docetaxel] gave an MTD in “in vivo” of at most 30 mg/kg. In addition, in data set [1], the MTD at 78 day was at most 30 mg/kg. The “time after which tumors did recover and grow” value in the data set with DU-145 prostate tumors lay in the range of 30 to 50 days. Also, the “anti-tumor effect on tumor growth” value in the data set on DU-145 prostate tumors (all 3 doses tested, 78 day observation period) was “good activity”.
The molecule `CCc1c2c(nc3ccc(OC(=O)N4CCC(N5CCCCC5)CC4)cc13)-c1cc3c(c(=O)n1C2)COC(=O)[C@]3(O)CC` [irinotecan, 7-ethyl-10[4-(1-piperidino)-1-piperidino] carbonyloxy CPT, reference compound] showed a Tumor growth delay in the data set on HT29 tumor fragments (q4 d×3) of 0.3 to 1.6 days. Besides, in the data set with HT29 tumor fragments, the tolerability result is recorded as “well tolerated”. In the data set on MCF-7 breast tumor cells (20 mg/kg per dose x3), the “Days to 4 Times Tumor Size” value is reported as 40.2 days, the “Tumor Regression Complete” value was 0 and the “Tumor Regression Partial” value is listed as 0. In addition, in the data set on MCF-7 breast tumor cells (40 mg/kg per dose x3), the “Median Duration” value was found to be 42.0 days, the “Days to 4 Times Tumor Size” value amounted to 42.8 days, the “Tumor Regression Complete” value was 0 and the “Tumor Regression Partial” value is 1. In addition, in data set [2], the “Exposure (AUC) of Irinotecan, Plasma” value was 0.5 µg·days/mL and the “Exposure (AUC) of SN38, Plasma” value turned out to be 0.2 µg·days/mL. In addition, in [3], the “Exposure (AUC) of Irinotecan, Plasma” value is 0.3 µg·days/mL and the “Exposure (AUC) of SN38, Plasma” value is 0.01 µg·days/mL. Further, the “delay in tumor growth (anti-tumor activity) compared to the control” value in data set [4] is listed as “significantly improved when compared to the control”.
“Pentaerythritolyl-4-Arm-(PEG-1-Methylene-2Oxo-Vinylamino Acetate Linked-Irinotecan)-20K [4-arm-PEG-GLY-IRINO-20K]”: the “plasma levels of SN-38 compared to unmodified irinotecan” value in data set [5] is “elevated and sustained over a longer period of time”. Further, in the data set on HT29 tumor fragments (HT29, 90 mg/kg dose, q4 d×3), the “complete tumor regression (animals)” value is 3/10 and the “partial tumor regression (animals)” value is on record as 1/10. For the same molecule, in the data set with HT29 tumor fragments (q4 d×3), the Tumor growth delay is 20.9 to 60.2 days. In addition, in the data set with HT29 tumor fragments (HT29 human colorectal tumor xenograft model), the “tumor growth inhibition compared to irinotecan” value is “more effectively than irinotecan”. Further, in the data set on HT29 tumor fragments, the tolerability entry is on record as “well tolerated”. In the data set on MCF-7 breast tumor cells (20 mg/kg per dose x3), the “T − C” value is over 52 days, the “Days to 4 Times Tumor Size” value is listed as over 72 days, the “Tumor Regression Complete” value is 0 and the “Tumor Regression Partial” value was 0. In the data set on MCF-7 breast tumor cells (40 mg/kg per dose x3), the “Median Duration” value came out at 22.0 days, the “T − C” value was over 52 days, the “Days to 4 Times Tumor Size” value is listed as over 72 days and the “Tumor Regression Complete” value is 0. Also, the “Tumor Regression Partial” value in the data set on MCF-7 breast tumor cells (40 mg/kg per dose x3) amounted to 1. Further, in the data set on MCF-7 breast tumor cells (60 mg/kg per dose x3), the “T − C” value is reported as over 52 days, the “Days to 4 Times Tumor Size” value is reported as over 72 days, the “Tumor Regression Complete” value is on record as 0 and the “Tumor Regression Partial” value is on record as 0. Besides, in the data set with MCF-7 breast tumor cells (90 mg/kg per dose x3), the “T − C” value is recorded as over 52 days and the “Days to 4 Times Tumor Size” value is recorded as over 72 days. Also, the “Tumor Regression Partial” value with MCF-7 breast tumor cells (90 mg/kg per dose x3, <50% of size observed on Day 1) came out at 1. Moreover, in the data set on MCF-7 breast tumor cells (90 mg/kg per dose x3, interval regressed tumor below 50% pretreatment size), the “Median Duration” value is 49.0 days. For the same molecule, in the data set on MCF-7 breast tumor cells (90 mg/kg per dose x3, unpalpable), the “Tumor Regression Complete” value came to 0. In addition, the “T-C value compared with irinotecan treatment groups” value in the data set on MCF-7 breast tumor cells (all 4 dose levels, p<0.001) is recorded as “significantly higher”. The tumor regrowth result with MCF-7 breast tumor cells (any dose level (FIG. 15A)) is listed as “No tumor regrowth occurred”. Besides, the “neutropenia compared to irinotecan at an equivalent dose” value with neutrophils is “reduced neutropenia”. In data set [2], the “Exposure (AUC) of Irinotecan, Plasma” value is 2.0 µg·days/mL; the “Exposure (AUC) of PEG-Irinotecan, Plasma” value amounted to 1213 µg·days/mL; the “Exposure (AUC) of PEG-SN38, Plasma” value was 229 µg·days/mL; the “Exposure (AUC) of SN38, Plasma” value was determined as 2.6 µg·days/mL. Further, in [3], the “Exposure (AUC) of Irinotecan, Plasma” value turned out to be 1.5 µg·days/mL; the “Exposure (AUC) of PEG-Irinotecan, Plasma” value turned out to be 2143 µg·days/mL; the “Exposure (AUC) of PEG-SN38, Plasma” value turned out to be 784 µg·days/mL; the “Exposure (AUC) of SN38, Plasma” value turned out to be 5.8 µg·days/mL. Besides, the “diarrhea episodes compared to irinotecan” value in [6] is listed as “fewer diarrhea episodes”. Moreover, the “maximum tolerated dose (MTD) compared to irinotecan” value in data set [7] (FIG. 22, rat and dog) was “significantly higher”. Further, the “occurrence and/or extent and/or severity of side-effects such as neutropenia and diarrhea vs irinotecan” value in data set [7] (equivalent doses (FIG. 23)) was “reduced”. Also, the “t½ of PEG-Irinotecan, species comparison” value (in vivo) is “Dog > rat =”. Besides, the “exposure to irinotecan and SN38 vs dosing with irinotecan per se” value (single dose, all species examined) is “sustained and greater exposure”. Moreover, under setting [10], the “AUC of PEG-Irinotecan, species comparison” value is listed as “mouse < rat < dog”; the “AUC of SN38, species comparison” value is “mouse >> rat >> dog”; the “Cmax of PEG-Irinotecan, species comparison” value is “mouse < rat < dog”; the “Cmax of SN38, species comparison” value is recorded as “Mouse >> rat >> dog”. In [4] (60 mg/kg (irinotecan content) IV every 4 days), the “delay in tumor growth compared to unconjugated irinotecan” value is given as “significantly better”. For the same molecule, in data set [4], the “delay in tumor growth (anti-tumor activity) compared to the control” value is listed as “significantly improved when compared to the control”. The “SN38 levels and AUCs after PEG-Irinotecan” value in data set [8] is reported as “very high AUCs”. Besides, the “exposure to SN-38 in colorectal tumors in comparison to irinotecan” value in [9] is “two to three times logarithmic increase”.

For the origin of these results see patent publication US10463659B2, “Multi-arm polymer prodrugs” (priority 2003, dated 2019).
